Data from patent publication US20190169134A1, “NOVEL CLASS OF QUINOLONE HETEROCYCLIC AROMATIC MOLECULES FOR CANCER TREATMENT” (RenoTarget Therapeutics, Inc., priority 2016, published 2019).
pIC50: −log10 of the molar value.

How the values were obtained:
[1] = tested on: HCC827OR16; experiment: Cell growth inhibition by SRB method; format: cell-based, human; conditions: AZD9291-resistant line, 72 hrs exposure
Excerpt: (§1) Six human cancer cell lines have been used to evaluate effects of the compounds on proliferation of cancer cells. These cell lines include HCC827-P (or HCC827 parent cells), human non-small lung cancer cells, Parent NSCLC HCC827 cell line (which harbors EGFR gene amplification, Exon 19 (E19) deletion, and Exon 21 mutation (Wang, Ramakrishnan et al. 2010), and is an EGFRi sensitive cell line (Kim, Kim et al. 2010)); HCC827-TR16 (Tarceva-resistant HCC727 cell line), HCC827-OR16 (AZD9291-resistant HCC727 cell line), LNCaP (human prostate cancer cells—a hormonal-therapy sensitive cell line (Wang, Liu et al. 1997)); 22RV1 (human prostate cancer cells—a hormonal-therapy resistant cell line (Sramkoski, Pretlow et al. 1999)); and ACHN (human renal adenocarcinoma cells (Park, Jung et al. 2003)). LNCaP cells and 22RV1 cells were purchased from the American Type Culture Collection (Rockville, Md.) and others were gifts of friends.
(§2) To evaluate activities of new compounds on growth of EGFR-inhibitor-resistant cells, two EGFRi-resistant cell lines, i.e., HCC827-TR16 and HCC827-OR16 were established using a method described by Eberlein et al. (Eberlein, Stetson et al. 2015). […] Resistant cells were collected and stabilized after 5 weeks (cycle 5). […] The resistant cells were sorted using 96-well dishes by culturing cells with density of 0.1, 1, 10, and 100 cells per well.
(§3) All cell lines were maintained in RPMI-1640 (GIBCO, Gaithersburg, Md.) with 10% heat-inactivated bovine serum (FBS) (Wang, Ossowski et al. 2004).
(§4) Sulforhodamine B (SRB) was used to estimate cell growth as described previously (Skehan, Storeng et al. 1990). Briefly, cells grown exponentially were aliquoted into 96-well plates at a density of 2,500 to 5,000 cells/200 μl per well in RPMI 1640 medium containing 10% FBS. After twenty-four hours, the cells were exposed to indicated concentrations of tested compounds for 72 hrs or otherwise as indicated. The cells were then fixed with 10% trichloride acetic acid for 2 h at 4° C. The 10% trichloride acetic acid was removed, and the dishes were washed 5 times with tape water, and air-dried. The fixed and dried cells were then stained with 0.4% SRB in 1% acetic acid for 25 min, and the dishes were washed 5 times with 1% acetic acid and air-dried overnight. 200 μl of 10 mM of Tris buffer (pH 10.0) were added, and the dishes were rotated to completely dissolve the color. Absorbance at 570 nm, with a reference wavelength 690 nm, was measured on a 96-well microplate reader (SPECTRO Star^Nano, BMG Labtech). Mean, standard deviation (SD) and the percent of growth inhibition at each concentration point of the treatment were calculated. The percent of growth inhibition as defined as (1−T/C)×100 where T is the mean of the absorbance at 570 nm from the treatment, and C from control (drug vehicle only). IC50 was calculated using Sigma-plot software by regression of growth-concentration curve from each drug treatment.

[2] = tested on: HCC827P; experiment: Cell growth inhibition by SRB method; format: cell-based, human; conditions: for pIC50: 72 hrs exposure, SRB
Excerpt: as §1, §2, §3, §4

[3] = tested on: HCC827TR16; experiment: Cell growth inhibition by SRB method; format: cell-based; conditions: Homo sapiens, Tarceva-resistant line, 72 hrs exposure
Excerpt: as §1, §2, §3, §4

[4] = tested on: 22RV1; experiment: Cell growth inhibition by SRB method; format: cell-based, human; conditions: for pIC50: 72 hrs exposure, SRB; for growth inhibition of 22RV1 cells (in words): EGFR negative cell line, 72 hrs, FIG. 2 and 3
Excerpt: as §1, §3, §4

[5] = tested on: LNCaP; experiment: Cell growth inhibition by SRB method; format: cell-based, human; conditions: for pIC50: Homo sapiens, LNCaP, 72 hrs exposure, SRB
Excerpt: as §1, §3, §4

[6] = tested on: tested cancer cell lines; experiment: Cell growth inhibition by SRB method, tested cancer cell lines overall; format: cell-based, human; conditions: data not provided
Excerpt: as §1, §3, §4

[7] = tested on: ACHN; experiment: Cell growth inhibition by SRB method; format: cell-based, human; conditions: 72 hrs exposure
Excerpt: as §1, §3, §4

[8] = tested on: HCC827 P and HCC827 TR cells; experiment: Reno647/Carboplatin combination, median effects (SRB, CalcuSyn); format: cell-based, human
Description: As described in Example 2.1. Two cell lines, HCC827-P and HCC827-TR (Tarceva-resistant HCC727 cells-an EGFRi resistant cell line with MET amplification) (Wang, Pursell et al. 2013) were used in the combination study. Exponentially growing HC[…] and HCC827-TR cells were seeded into 96-wells dishes at density of 3,000 cells per well. Twenty-four hours later, the cells were exposed concurrently to serial dilution of Reno647 or Carboplatin or Camptothecin alone or in combination at a ratio of 1:50 with Carboplatin or at ratio 1:1 with Camptothecin for 3 days. Reno647 were concurrently and sequentially with paclitaxel (Taxol) at ratio of 200:1 for 6 days. For sequential exposure, the cells were treated with Reno647 for 3 days, after removal of the drug containing medium, the cells were treated with Taxol for additional 3 days, or the cells were treated by Taxol first followed by the treatment with Reno 647. After incubation for 6 days, the cell growth was measured by SRB as described previously in Example 2.1 section, and the percentages of inhibition (1-T/C) % were calculated, and data were analyzed by a PC program, CalcuSyn, Biosoft (edited by T.-C. Chou, Memorial Sloan-Kettering Cancer Center, New York, and M. P. Hayball, at Cambridge, UK, 1996). The computer-calculated combination index (CI) was used to judge the outcomes of a combination: […] It has long been accepted that chemotherapy provided some benefit for patients with non-small-cell lung cancer (NSCLC) in terms of quality of life and symptomatology as well as modest improvements in survival. […] Cell growth was determined by SRB as described above.

| pIC50 ([1]; Homo sapiens) | pIC50 ([2]; Homo sapiens) | pIC50 [3] | pIC50 ([4]; Homo sapiens, 22Rv1) | pIC50 [5] | Compound | activities against all tested cancer cells lines compared with NK-2206 and MLN8237 [6] | also measured |
| --- | --- | --- | --- | --- | --- | --- | --- |
| < 5.30 | 6.82 | < 5.30 | < 5.30 | < 5.30 | C#Cc1cccc(Nc2ncnc3cc(OCCOC)c(NC(=O)c4ccc(Cl)c([N+](=O)[O-])c4)cc23)c1 [Reno648, 4-Chloro-N-[4-(3-ethynyl-phenylamino)-7-(2-methoxy-ethoxy)-quinazolin-6-yl]-3-nitro-benzamide] | better activities | – |
| – | – | – | – | – | O=C(c1cc(Cc2n[nH]c(=O)c3ccccc23)ccc1F)N1CCN(C(=O)C2CC2)CC1 [AZD2281, reference compound] | – | growth inhibition of HCC827P cells (in words) ([2]; EGFR positive cell line, 72 hrs, FIG. 3): no activity; growth inhibition of 22RV1 cells (in words) [4]: significantly inhibited |
| – | – | – | – | – | (3-Ethynyl-phenyl)-[6-(2-methoxy-ethoxy)-7-nitro-naphthalen-1-yl]-amine [Reno635] | – | pIC50 [1]: < 5.30; pIC50 [2]: < 5.30; pIC50 [4]: 5.30; pIC50 [7]: 5.43 |
| < 5.30 | 6.70 | < 5.30 | < 5.30 | – | C#Cc1cccc(Nc2ncnc3cc(OCCOC)c(NC(=O)c4ccc(Br)c([N+](=O)[O-])c4)cc23)c1 [Reno636, 4-Bromo-N-[4-(3-ethynyl-phenylamino)-7-(2-methoxy-ethoxy)-quinazolin-6-yl]-3-nitro-benzamide] | better activities | pIC50 ([7]; Homo sapiens, ACHN): < 5.30 |
| – | – | – | – | – | N.N.O=C([O-])C1(C(=O)[O-])CCC1.[Pt+2] [Carboplatin, reference compound] | – | dose reduction in combination ([8]; Reno647:Carboplatin 1:50): 2 fold; median effects, two drugs combined ([8]; Reno647:Carboplatin 1:50, concurrent, cell line not stated): 3.38 µM; median effects, drug alone ([8]; single agent, cell line not stated): 8.39 µM |
| 5.70 | > 6.70 | 5.92 | 6.19 | 5.70 | C=CC(=O)Nc1cc(Nc2nccc(-c3cn(C)c4ccccc34)n2)c(OC)cc1N(C)CCN(C)C [AZD9291, reference compound] | – | – |
| 5.74 | 6.70 | < 5.30 | 5.64 | < 5.30 | C#Cc1cccc(Nc2ncnc3cc(OCCOC)c(NC(=O)c4ccc(I)c([N+](=O)[O-])c4)cc23)c1 [Reno649, 4-Iodo-N-[4-(3-ethynyl-phenylamino)-7-(2-methoxy-ethoxy)-quinazolin-6-yl]-3-nitro-benzamide] | better activities | – |

| Compound | pIC50 ([1]; Homo sapiens) | pIC50 ([2]; Homo sapiens) | pIC50 [3] | pIC50 ([4]; Homo sapiens, 22Rv1) | pIC50 [5] | activities against all tested cancer cells lines compared with NK-2206 and MLN8237 [6] | also measured |
| --- | --- | --- | --- | --- | --- | --- | --- |
| C#Cc1cccc(Nc2ncnc3cc(OCCOC)c(OCCOC)cc23)c1 [Tarceva, reference compound] | < 5.30 | > 6.70 | < 5.30 | < 5.30 | < 5.30 | – | IC50 HCC827OR16 [1]: almost unmeasurable; growth inhibition of 22RV1 cells (in words) [4]: relatively weak response; pIC50 ([7]; Homo sapiens, ACHN): 6.20; growth inhibition of LNCaP cells (in words) ([5]; 72 hrs, FIG. 2): relatively weak response |
